Measurements: article PMC5760633, “Determining direct binders of the Androgen Receptor using a high-throughput Cellular Thermal Shift Assay” (Scientific Reports, 2018)
Positions count from the first letter of the chain named. Read-outs that look alike come from different tables or passages of the source.

What was measured:
[1] = tested on: AR-driven transcription (ARE-Luciferase); test: AR-driven transcription ARE Luciferase reporter assay in CWR22Pc-R1-AD1 cells; type: cell-based, human;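 also: cells stably carrying an ARE-driven firefly luciferase reporter, with luminescence as read-out, tested in phenol red free RPMI containing 10% charcoal stripped FBS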
Protocol: 15 µL 2x Steady-Glo® reagent (Promega) was added per well and incubated 15 min in the dark before reading luminescence using an EnVision platereader. Experiments were performed in phenol red free RPMI media supplemented with 10% charcoal stripped FBS.

Androgen Receptor (AR) [2] = biological target: T1, Androgen Receptor (AR) (Homo sapiens, UniProt P10275, H875Y); test: CETSA HT ITDRF at 46 °C, agonist mode (no exogenous DHT), CWR22Pc-R1-AD1 cells; type: binding; conditions: for compound incubation time at which AR thermal stabilisation is seen: time-course
T1 construct: exclusively expresses a structurally full-length AR containing a H874Y mutation; endogenous in cells; host or cells: CWR22Pc-R1-AD1
T1 sequence (P10275 1-920 H875Y): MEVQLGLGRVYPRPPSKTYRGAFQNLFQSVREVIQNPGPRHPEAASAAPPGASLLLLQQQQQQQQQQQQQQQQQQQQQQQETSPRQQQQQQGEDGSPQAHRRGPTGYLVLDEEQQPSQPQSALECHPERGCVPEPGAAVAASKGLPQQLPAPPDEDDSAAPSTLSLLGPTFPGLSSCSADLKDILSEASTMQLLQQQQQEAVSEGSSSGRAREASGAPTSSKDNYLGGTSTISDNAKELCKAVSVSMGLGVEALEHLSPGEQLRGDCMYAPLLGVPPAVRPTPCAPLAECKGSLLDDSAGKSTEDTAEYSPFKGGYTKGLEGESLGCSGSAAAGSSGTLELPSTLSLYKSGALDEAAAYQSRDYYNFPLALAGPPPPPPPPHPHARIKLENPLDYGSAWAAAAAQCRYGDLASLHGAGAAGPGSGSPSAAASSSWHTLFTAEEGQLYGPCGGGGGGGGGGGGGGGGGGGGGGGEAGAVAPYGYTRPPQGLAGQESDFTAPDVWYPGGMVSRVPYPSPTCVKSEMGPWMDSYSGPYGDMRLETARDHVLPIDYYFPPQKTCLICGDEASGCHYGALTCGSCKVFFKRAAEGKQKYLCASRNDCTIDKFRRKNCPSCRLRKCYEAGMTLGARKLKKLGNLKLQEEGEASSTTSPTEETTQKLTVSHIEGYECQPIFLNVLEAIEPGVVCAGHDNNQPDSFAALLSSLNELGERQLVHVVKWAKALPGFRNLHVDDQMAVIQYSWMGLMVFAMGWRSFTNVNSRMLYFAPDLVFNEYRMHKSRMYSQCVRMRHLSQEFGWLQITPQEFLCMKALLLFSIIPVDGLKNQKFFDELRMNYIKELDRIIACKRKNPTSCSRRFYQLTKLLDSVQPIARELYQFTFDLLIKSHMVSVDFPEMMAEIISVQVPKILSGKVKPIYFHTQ

Androgen Receptor (AR) [3] = biological target: T2, Androgen Receptor (AR) (Homo sapiens, UniProt P10275, T878A); test: CETSA HT ITDRF at 46 °C, agonist mode, LNCaP cells; type: binding
T2 construct: an alternative AR-positive prostate cancer cell line, LNCaP; endogenous in cells; host or cells: LNCaP
T2 sequence (P10275 1-920 T878A): T1 sequence (P10275 1-920 H875Y) with Y875H, T878A

Androgen Receptor (AR) [4] = biological target: T1, Androgen Receptor (AR); test: CETSA HT ITDRF at 46 °C, antagonist mode in the presence of 1 nM DHT, CWR22Pc-R1-AD1 cells; type: binding; conditions: for AR target engagement (CETSA HT), 2 h, IC50: CWR22Pc-R1-AD1 cells
Protocol: [sequence] experiments were performed in a plate-based, automation-compatible assay setup, as described in Supplementary Fig. S2e. […] Internal standard controls were included on each plate (Supplementary Fig. S10). […] 10 µL of cells were seeded per well of the PCR plate using a Multidrop Combi dispensor, covered with a plate lid, briefly centrifuged, and incubated under standard tissue culture conditions for 2 h or indicated timepoint. […] Cells were lysed by addition of 10 µL/well 2x SureFire Lysis Buffer using a Multidrop Combi. […] Antibody and AlphaScreen reagent, prepared as above, were added by Multidrop Combi (6 µL/well). Plates were incubated in the dark 16 h and analysed using an EnVision platereader.

total cellular AR = test: CETSA HT control without heat shock and without exogenous DHT (total AR); type: cell-based, human
[5] = CWR22Pc-R1-AD1 cells, 1 nM DHT, 24 h; read-out: AR-driven transcription (ARE-Luciferase), 24 h, IC50
[6] = Supplementary Table S1; 24 h, 1 nM DHT
[7] = AR target engagement (CETSA HT), 2 h, IC50, CWR22Pc-R1-AD1 cells, 1 nM DHT, 46 °C heat shock
[8] = Supplementary Table S1, 2 h, 46 °C
[9] = Homo sapiens, 24 h; read-out: AR-driven transcription (ARE-Luciferase), 24 h, IC50
[10] = Homo sapiens, 24 h; read-out: ARE-Luciferase response pIC50 (converted)
[11] = 2 h compound incubation, no exogenous DHT, no 46 °C heat shock
[12] = 1 nM DHT, 2 h, 46 °C heat shock
[13] = Supplementary Table S1, 1 nM DHT, 2 h, 46 °C, one technical repeat, read-out: CETSA HT response pIC50 (converted)

O=C(O)c1ccc(CN2CCC(CN[C@@H]3C[C@H]3c3ccccc3)CC2)cc1 [GSK2879522]
IC50 [1, 5]: > 30000 nM
Conclusion: activity in ARE-Luciferase assay [1, 6]: Inactive

C[C@]12CCC(=O)C=C1CC[C@@H]1[C@@H]2C(=O)C[C@]2(C)C(=O)CC[C@@H]12 [Andrenosterone]
EC50 (Androgen Receptor (AR) [2]; agonist alone, read-out: EC50 for in-cell AR target engagement (ITDRF CETSA)): 50.6 nM
compound incubation time at which AR thermal stabilisation is seen (Androgen Receptor (AR) [2]): at least 30 minutes
compound incubation time at which AR thermal stabilisation is seen (Androgen Receptor (AR) [2]; listed as andrenosterone): 30 min
EC50 (Androgen Receptor (AR) [3]; read-out: EC50 for AR thermal stabilisation (ITDRF CETSA), LNCaP cells, agonist alone): 70.1 nM

CO[C@@H](C(=O)N1Cc2n[nH]c(NC(=O)c3ccc(N4CCN(C)CC4)cc3)c2C1)c1ccccc1 [Danusertib]
IC50 (Androgen Receptor (AR) [4]; [7]): > 30000 nM
Conclusion: activity in CETSA HT (Androgen Receptor (AR) [4]; [8]): Inactive
IC50 [1, 9]: 2600 nM
IC50 [1, 10]: 2570 nM
Conclusion: activity in ARE-Luciferase assay [1, 6]: Active

CC[C@H](C)n1cc(C)c2c(C(=O)NCc3c(C)cc(C)[nH]c3=O)cc(-c3ccc(N4CCNCC4)nc3)cc21 [GSK-126]
IC50 [1, 5]: > 30000 nM
Conclusion: activity in ARE-Luciferase assay [1, 6]: Inactive

O=C(Nc1ccc([N+](=O)[O-])cc1Cl)c1cc(Cl)ccc1O [Niclosamide]
IC50 [1, 9]: 955 nM
IC50 [1, 10]: 955 nM
Conclusion: activity in ARE-Luciferase assay [1, 6]: Active

Cc1sc2c(c1C)C(c1ccc(Cl)cc1)=N[C@@H](CC(=O)OC(C)(C)C)c1nnc(C)n1-2 [JQ1]
IC50 [1, 5]: 302 nM
Conclusion: activity in ARE-Luciferase assay [1, 6]: Partial

C=CCNC1=C2C[C@@H](C)C[C@H](OC)[C@H](O)[C@@H](C)/C=C(\C)[C@H](OC(N)=O)[C@@H](OC)/C=C\C=C(/C)C(=O)NC(=CC1=O)C2=O [Tanespimycin]
IC50 [1, 9]: 3200 nM
IC50 [1, 10]: 3240 nM
Conclusion: activity in ARE-Luciferase assay [1, 6]: Active

CO[C@H]1CNC[C@@H](OCC2CCC(F)(F)CC2)[C@@H]1Nc1ncc(-c2cncc(C)c2)c2cc(C)c(=O)[nH]c12 [GSK8814]
IC50 (Androgen Receptor (AR) [4]; [7]): > 30000 nM
Conclusion: activity in CETSA HT (Androgen Receptor (AR) [4]; [8]): Inactive
IC50 [1, 9]: > 30000 nM
Conclusion: activity in ARE-Luciferase assay [1, 6]: Inactive

CC(C)(O)C(=O)Nc1ccc([N+](=O)[O-])c(C(F)(F)F)c1 [Hydroxyflutamide]
AR thermal stabilisation in time-course of compound incubation (Androgen Receptor (AR) [2]; 10 minutes up to 6 hours incubation): No thermal
AR thermal stabilisation / target engagement by compound alone (Androgen Receptor (AR) [2]; no exogenous agonist): did not thermally stabilise AR
AR thermal stabilisation / agonist binding mode by compound alone (Androgen Receptor (AR) [3]; LNCaP cells (AR T877A)): did not show any evidence of binding as an agonist
temporal analysis of target engagement (competition of DHT) (Androgen Receptor (AR) [4]; 1 nM DHT, incubation 10 minutes – 6 hours): increasing competition of DHT from AR over time
Conclusion: activity in CETSA HT (Androgen Receptor (AR) [4]; [8]): Active
IC50 [1, 9]: 135 nM
IC50 [1, 10]: 135 nM
Conclusion: activity in ARE-Luciferase assay [1, 6]: Active
effect on total AR (no heat shock) (total cellular AR; [11]): do not reduce total AR

CN1CCN(c2ccc(C(=O)Nc3n[nH]c4ccc(Cc5cc(F)cc(F)c5)cc34)c(NC3CCOCC3)c2)CC1 [Entrectinib]
IC50 (Androgen Receptor (AR) [4]; [7]): > 30000 nM
Conclusion: activity in CETSA HT (Androgen Receptor (AR) [4]; [8]): Inactive
IC50 [1, 9]: 11200 nM
IC50 [1, 10]: 11200 nM
Conclusion: activity in ARE-Luciferase assay [1, 6]: Active
effect on total AR (no heat shock) (total cellular AR; [11]): do not reduce total AR

CS(=O)(=O)c1ccc(-c2cnc(NCc3ccco3)n3cnnc23)cc1 [EED-226]
IC50 (Androgen Receptor (AR) [4]; [7]): > 30000 nM
Conclusion: activity in CETSA HT (Androgen Receptor (AR) [4]; [8]): Inactive
IC50 [1, 9]: > 30000 nM
Conclusion: activity in ARE-Luciferase assay [1, 6]: Inactive

CCNC(=O)c1noc(-c2cc(C(C)C)c(O)cc2O)c1-c1ccc(CN2CCOCC2)cc1 [NVP-AUY-922]
AR target engagement (CETSA HT), 2 h, IC50 (Androgen Receptor (AR) [4]; [12]): Reduces total AR
IC50 (Androgen Receptor (AR) [4]; [13]): 955 nM
Conclusion: activity in CETSA HT (Androgen Receptor (AR) [4]; [8]): Active
IC50 [1, 9]: 89 nM
IC50 [1, 10]: 89.1 nM
Conclusion: activity in ARE-Luciferase assay [1, 6]: Active
effect on total AR (no heat shock) (total cellular AR; [11]): reduces total AR

Oc1nc(-c2ccc(C(F)(F)F)cc2)nc2c1CSCC2 [XAV-939]
IC50 (Androgen Receptor (AR) [4]; [7]): > 30000 nM
Conclusion: activity in CETSA HT (Androgen Receptor (AR) [4]; [8]): Inactive
IC50 [1, 9]: > 30000 nM
Conclusion: activity in ARE-Luciferase assay [1, 6]: Inactive

CCN(c1cc(-c2ccc(CN3CCOCC3)cc2)cc(C(=O)NCc2c(C)cc(C)[nH]c2=O)c1C)C1CCOCC1 [EPZ-6438]
IC50 (Androgen Receptor (AR) [4]; [7]): > 30000 nM
Conclusion: activity in CETSA HT (Androgen Receptor (AR) [4]; [8]): Inactive
Conclusion: activity in ARE-Luciferase assay [1, 6]: Inactive

C[C@]12CC[C@H](O)CC1=CC[C@@H]1[C@@H]2CC[C@]2(C)C(c3cccnc3)=CC[C@@H]12 [Abiraterone]
IC50 (Androgen Receptor (AR) [4]; [7]): > 30000 nM
Conclusion: activity in CETSA HT (Androgen Receptor (AR) [4]; [8]): Inactive
IC50 [1, 9]: > 30000 nM
Conclusion: activity in ARE-Luciferase assay [1, 6]: Inactive

CC(C)c1cc(C(=O)N2Cc3ccc(CN4CCN(C)CC4)cc3C2)c(O)cc1O [Onalespib]
AR target engagement (CETSA HT), 2 h, IC50 (Androgen Receptor (AR) [4]; [12]): Reduces total AR
IC50 (Androgen Receptor (AR) [4]; [13]): 1050 nM
Conclusion: activity in CETSA HT (Androgen Receptor (AR) [4]; [8]): Active
IC50 [1, 9]: 537 nM
IC50 [1, 10]: 537 nM
Conclusion: activity in ARE-Luciferase assay [1, 6]: Active
effect on total AR (no heat shock) (total cellular AR; [11]): reduces total AR

CN(C)[C@H]1CN(C2CCc3cccc(F)c32)C[C@@H]1c1ccc(N2CCN(S(C)(=O)=O)CC2)cc1 (stereo partly drawn) [A-395]
IC50 [1, 5]: > 30000 nM
Conclusion: activity in ARE-Luciferase assay [1, 6]: Inactive

Cc1sc2c(c1C)C(c1ccc(Cl)cc1)=N[C@@H](CC(=O)Nc1ccc(O)cc1)c1nnc(C)n1-2 [OTX-015]
IC50 (Androgen Receptor (AR) [4]; [7]): > 30000 nM
Conclusion: activity in CETSA HT (Androgen Receptor (AR) [4]; [8]): Inactive
IC50 [1, 9]: 214 nM
IC50 [1, 10]: 214 nM
Conclusion: activity in ARE-Luciferase assay [1, 6]: Partial

COc1ccc(/C=C/C(=O)/C=C(O)/C=C/c2ccc(OC)c(OC)c2)cc1OC [ACS-J9]
IC50 [1, 5]: > 10000 nM
Conclusion: activity in ARE-Luciferase assay [1, 6]: Active

Cc1cc(-c2ncc(CC(=O)Nc3ccc(-c4cnccn4)cn3)cc2C)ccn1 [WNT-974]
IC50 (Androgen Receptor (AR) [4]; [7]): > 30000 nM
Conclusion: activity in CETSA HT (Androgen Receptor (AR) [4]; [8]): Inactive
IC50 [1, 9]: > 30000 nM
Conclusion: activity in ARE-Luciferase assay [1, 6]: Inactive

C[C@](O)(COc1ccc(C#N)cc1)C(=O)Nc1ccc(C#N)c(C(F)(F)F)c1 [MK-2866]
Conclusion: activity in CETSA HT (Androgen Receptor (AR) [4]): Active
temporal analysis of target engagement (competition of DHT) (Androgen Receptor (AR) [4]): increasing competition of DHT from AR over time
IC50 ([1]; Homo sapiens, 24 h, read-out: AR-driven transcription (ARE-Luciferase), 24 h, IC50): 170 nM
IC50 ([1]; Homo sapiens, 24 h, read-out: ARE-Luciferase response pIC50 (converted)): 170 nM
effect on total AR (no heat shock) (total cellular AR): do not reduce total AR
